In brackets after ≈: the same amount, converted by molar mass. Several values for one entry are separate records, joined by “and”; a condition that tells them apart may be missing. Identical values can stand only once. Entries after “also recorded” stand apart in the source; their conditions may differ. Like-named read-outs stand apart in the source and are kept apart here.
What was measured:
wild-type SOD1 = wild-type SOD1 (Homo sapiens, UniProt P00441); assay: SOD1 cross-linking in Hep G2 cells, SDS-PAGE and western blot; type: cell-based; details: Hep G2 cells in PBS buffer, 30 min
Experimental: The Hep G2 human hepatocarcinoma cell line (American Type Culture Collection, ATCC, Manassas, Virginia, USA) was cultured using complete EMEM (Eagle’s minimal essential medium, ATCC) media including 10% FBS (fetal bovine serum, ATCC) and 1% penicillin streptomycin (10,000 units/mL penicillin and 10,000 μg/mL streptomycin, Fisher Scientific, Hampton, New Hampshire, USA). Cells were counted and checked for morphology using an inverted Carl Zeiss microscope (Carl Zeiss Microscopy LLC, White Plains, New York, USA). A 96-well plate (Corning Life Sciences, Tewksbury, Massachusetts, USA) was used for culturing cells at 0.2 mill/mL concentration for 24 h at 37°C, 5% CO2 under controlled humidity for western blot experiment. […] Wild-type SOD1 purified from human erythrocyte (Sigma Aldrich, St. Louis, Missouri, USA) was used as positive control (standard) in the experiment. The growth buffer was aspirated and replaced with 30 μL of lysis buffer (150 mM NaCl, 1% Triton X-100, 0.5% sodium deoxycholate, 0.1% SDS, and 50 mM Tris (pH 8.0), all chemicals were purchased from Sigma Aldrich (St. Louis, Missouri, USA)) and incubated for 10 min followed by addition of non-reducing sample buffer. […]

[1] = test system: NSC-34 cells expressing EGFP-WT-SOD1; assay: Determination of cells containing inclusions; type: cell-based, mouse; design: Inclusion Formation: unit not given here; details: for Inclusion Formation: WT, 48 h, replicates
Experimental: (§1) Transfected NSC-34 cells were plated out into 96-well plates and left overnight. […] Cells were then fixed using 4% (w/v) paraformaldehyde in 1×PBS for 20 min. Plates for imaging were then processed as previously described with some changes. Cells were imaged using a DMi8 epifluorescent microscope (Leica, Germany) fitted with a Mercury Arc Lamp, a 10× 0.25NA (CAT NO) air objective and an automated stage. A software-based autofocus strategy was utilized to focus on the GFP signal within cells, with a subsequent image being taken in the DAPI channel to view Hoescht-stained nuclei. Relative focus correction was applied between channels to offset emission wavelength effects to the focal plane. Following image acquisition, images were corrected for illumination variation via a background method and processed using a combination of FIJI [66], StarDist, CellProfiler, and CellProfiler Analyst as previously described.

[2] = test system: NSC-34 cells expressing EGFP-G93A; assay: Determination of cells containing inclusions; type: cell-based, mouse; design: Inclusion Formation: unit not given here; details: for Inclusion Formation: G93A, 48 h, replicates
Experimental: as §1

[3] = type: in vitro ADME; details: human; for plasma protein binding assay readout (Fig 6C): 50 uM
From the text: Fig 6 Cross-linking at sub-toxic concentrations within cells. […] Results are shown as percentage of viable cells compared to a vehicle control. Note: cell viability <70% (dotted line) is generally considered as the threshold for cytotoxicity, and viabilities >100% indicate a trophic effect. Controls included EMEM with 0.1% DMSO (dimethyl sulfoxide, negative control) and 500 μm of chlorpromazine (positive control). […] The data underlying this figure can be found in S1 Data. LC-MS/MS, liquid chromatography-tandem mass spectrometry; MS, mass spectrometry; SOD1, superoxide dismutase 1.

SOD1 = SOD1 (Homo sapiens, UniProt P00441); type: binding
Experimental: A computational search was performed in PubChem to identify all compounds containing a cyclic disulfide motif. […] Of these, 69 compounds cross-linked SOD1 with a wide array of reaction rates. Only 2 compounds could cross-link 100% of SOD1 during the assay, including one 5-membered cyclic disulfide (4-Amino-1,2-Dithiolane-4-Carboxylic Acid) and one 6-membered cyclic thiosulfinate (1,2-dithiane 1-oxide).

Maximum solubility = type: physicochemical; details: pH 7.4, aqueous buffer

Chain of wild-type SOD1 (P00441 2-154 limits assumed): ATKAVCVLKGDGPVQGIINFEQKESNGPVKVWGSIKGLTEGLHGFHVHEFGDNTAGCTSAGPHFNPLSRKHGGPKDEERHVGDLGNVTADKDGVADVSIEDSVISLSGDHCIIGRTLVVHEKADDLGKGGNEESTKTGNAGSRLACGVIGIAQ
Chain of SOD1 (P00441 2-154 limits assumed): as above

[O-][S+]1CCCCS1 (centres unmarked) [S-XL6, 1,2-dithiane-1-oxide]
EC50 (wild-type SOD1): ~5 µM
aggregation of EGFP-labeled wild-type SOD1 [1]: increased cellular aggregation; also recorded: accelerate the aggregation
Inclusion Formation ([1]; 5 uM): 0.4215 and 0.8811 and 2.367 and 0.4188 and 0.4044
Inclusion Formation ([1]; 10 uM): 0.8155 and 1.677 and 1.595 and 4.094 and 2.381
Inclusion Formation ([1]; 20 uM): 9.589 and 4.535 and 7.818 and 6.78 and 6.154
aggregation of EGFP-labeled G93A [2]: did not affect
Inclusion Formation ([2]; 5 uM): 5.34 and 6.771 and 14.6572 and 11.1111 and 8.602
Inclusion Formation ([2]; 10 uM): 6.731 and 9.113 and 13.3487 and 16.0367 and 12.7358
Inclusion Formation ([2]; 20 uM): 8.219 and 11.7978 and 11.4911 and 10.411 and 12.1547
plasma protein binding assay readout (Fig 6C) [3]: 79%
plasma protein binding ([3]; plasma): no binding
plasma protein binding assay readout (Fig 6C) ([3]; plasma): 144%
SOD1 cross-linked during the assay (SOD1): 100%
solubility (Maximum solubility): 360 mM (≈ 49 mg/mL)
